Reference: ChEMBL document CHEMBL4715826, “Selective PPARδ Modulators Improve Mitochondrial Function: Potential Treatment for Duchenne Muscular Dystrophy (DMD)” (ACS Med Chem Lett, 2018)
pEC50: −log10 of the molar value.

Assays:
[1] = target: T1, Peroxisome proliferator-activated receptor alpha (Homo sapiens, UniProt Q07869); assay: Modulator activity at GAL4-fused human PPARalpha LBD (unknown origin) transfected in African green monkey CV1 cells assessed as receptor transactivation by luciferase reporter gene assay; type: cell-based, CV-1
T1 sequence (Q07869 whole entry): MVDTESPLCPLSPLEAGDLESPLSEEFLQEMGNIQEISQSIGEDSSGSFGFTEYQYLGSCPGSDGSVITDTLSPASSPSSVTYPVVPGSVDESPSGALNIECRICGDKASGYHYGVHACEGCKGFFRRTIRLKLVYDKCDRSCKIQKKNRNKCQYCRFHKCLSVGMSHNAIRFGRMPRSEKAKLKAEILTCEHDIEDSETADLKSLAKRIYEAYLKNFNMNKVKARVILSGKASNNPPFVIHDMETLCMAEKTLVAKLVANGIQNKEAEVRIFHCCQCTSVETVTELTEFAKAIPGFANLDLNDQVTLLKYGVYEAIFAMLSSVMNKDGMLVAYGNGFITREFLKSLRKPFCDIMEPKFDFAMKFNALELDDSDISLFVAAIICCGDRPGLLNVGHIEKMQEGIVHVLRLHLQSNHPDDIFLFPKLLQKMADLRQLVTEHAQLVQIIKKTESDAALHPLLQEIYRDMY

[2] = target: T2, Peroxisome proliferator-activated receptor gamma (Homo sapiens, UniProt P37231); assay: Modulator activity at GAL4-fused human PPARgamma LBD (unknown origin) transfected in African green monkey CV1 cells assessed as receptor transactivation by luciferase reporter gene assay; type: cell-based, CV-1
T2 sequence (P37231 whole entry): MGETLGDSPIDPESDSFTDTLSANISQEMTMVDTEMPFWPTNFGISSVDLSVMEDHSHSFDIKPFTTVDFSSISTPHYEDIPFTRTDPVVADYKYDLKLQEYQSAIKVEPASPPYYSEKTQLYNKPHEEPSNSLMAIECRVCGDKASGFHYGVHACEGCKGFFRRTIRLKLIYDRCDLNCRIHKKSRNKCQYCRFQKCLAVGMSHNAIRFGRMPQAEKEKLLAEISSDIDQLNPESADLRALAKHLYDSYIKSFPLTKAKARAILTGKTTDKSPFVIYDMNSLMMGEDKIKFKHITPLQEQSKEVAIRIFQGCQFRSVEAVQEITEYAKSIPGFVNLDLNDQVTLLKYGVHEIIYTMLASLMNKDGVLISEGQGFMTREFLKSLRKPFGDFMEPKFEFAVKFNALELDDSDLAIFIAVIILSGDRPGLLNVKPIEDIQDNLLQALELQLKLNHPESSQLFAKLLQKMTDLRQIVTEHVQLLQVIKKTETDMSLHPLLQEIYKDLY

[3] = Half life in CD-1 mouse at 1 mg/kg, iv; type: ADME, organism-based; settings: in vivo
[4] = AUC in CD-1 mouse at 1 mg/kg, iv; type: ADME, organism-based; design: dose 1 mg/kg; settings: in vivo
[5] = target: T3, Peroxisome proliferator-activated receptor delta (Homo sapiens, UniProt Q03181)
T3 sequence (Q03181 whole entry): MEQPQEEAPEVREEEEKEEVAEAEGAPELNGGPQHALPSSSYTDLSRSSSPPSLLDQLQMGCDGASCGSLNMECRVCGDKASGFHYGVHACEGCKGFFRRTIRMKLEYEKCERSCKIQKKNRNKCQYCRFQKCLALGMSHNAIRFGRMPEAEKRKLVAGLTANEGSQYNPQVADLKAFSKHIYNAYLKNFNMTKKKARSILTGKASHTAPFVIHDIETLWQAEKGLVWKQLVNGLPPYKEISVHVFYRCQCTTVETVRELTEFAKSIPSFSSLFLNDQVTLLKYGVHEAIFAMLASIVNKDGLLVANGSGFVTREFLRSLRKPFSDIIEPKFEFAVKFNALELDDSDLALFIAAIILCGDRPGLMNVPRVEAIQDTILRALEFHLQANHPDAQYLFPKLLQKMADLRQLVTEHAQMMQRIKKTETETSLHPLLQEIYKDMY
Description: Modulator activity at GAL4-fused human PPARdelta LBD (128 to residue at C-terminus) transfected in African green monkey CV1 cells assessed as receptor transactivation by luciferase reporter gene assay

[6] = Half life in CD-1 mouse at 3 mg/kg, iv; type: ADME, organism-based; settings: in vivo
[7] = AUC in CD-1 mouse at 3 mg/kg, iv; type: ADME, organism-based; design: dose 3 mg/kg; settings: in vivo

Row | pEC50 [1] | pEC50 [2] | half-life [3] | AUC [4] | pEC50 [5] | half-life [6] | AUC [7] | SMILES
1 | 4.82 | < 5.00 | – | – | – | – | – | Cc1cnc(-c2ccc(OC(F)F)cc2)n1Cc1ccccc1OCCC[C@@H](C)CC(=O)O
2 | < 4.00 | < 5.00 | 84 min | 752 ng·h/mL | 8.26 | – | – | Cc1cnc(-c2ccc(Cl)cc2)n1Cc1ccccc1OCCC[C@@H](C)CC(=O)O
3 | 4.16 | < 5.00 | 258 min | 440 ng·h/mL | – | – | – | Cc1cnc(-c2ccc(Cl)c(F)c2)n1Cc1ccccc1OCCC[C@@H](C)CC(=O)O
4 | 5.16 | < 5.00 | – | – | 9.15 | 18 min | 180 ng·h/mL | Cc1cnc(-c2ccc(-c3ccco3)cc2)n1Cc1ccccc1OCCCCCC(=O)O
